Results: US20110237626A1, “COMPOSITIONS FOR HYGIENIC HAND DISINFECTION AND DISINFECTANT HANDWASHING” (AIR LIQUIDE SANTE (INTERNATIONAL), priority 2005, published 2011)

SMILES: CCCCC(CC)COCC(O)CO (stereo not shown) [1-(2-ethylhexyl)glycerol ether, 1-(2-Ethylhexyl)-glycerol ether]
- solubility in water: 0.1 % by weight
